Molecules are shown by their SMILES.

Common to all, as to assay type: in vivo
One assay deals with rice (Oryra sativa). Description: Test B flooded paddy test. To be noted: Oryza sativa, Flood, 250 g ai/ha; scale of 0 to 100 where 0 is no effect and 100 is complete control; read-out: Rice plant response rating. The method, boiled down:
(§1)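 Percent control, visually estimated after 13–15 d in the greenhouse on a 0–100 basis, compares treated pots with untreated ones; compound was put into paddy water 3 cm above the soil when plants had two leaves.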

The subject of assay [1] is ducksalad (Heteranthera limosa). Description: Test B flooded paddy test. Particulars: Heteranthera limosa, Flood, 250 g ai/ha; scale of 0 to 100 where 0 is no effect and 100 is complete control; read-out: Ducksalad plant response rating. In a few lines: as §1
Assay [2] has as its system barnyardgrass (Echinochloa crus-galli). The experiment in a line: Test B flooded paddy test. To be noted: Echinochloa crus-galli, Flood, 250 g ai/ha; scale of 0 to 100 where 0 is no effect and 100 is complete control; read-out: Barnyardgrass plant response rating. The method, boiled down:
as §1

Assay [3] deals with sedge, umbrella (small-flower umbrella sedge, Cyperus difformis). The experiment in a line: Test B flooded paddy test. Particulars: Cyperus difformis, Flood, 250 g ai/ha; scale of 0 to 100 where 0 is no effect and 100 is complete control; read-out: Sedge, Umbrella plant response rating. In a few lines: as §1
The test system of assay [4] is pigweed (Amaranthus retroflexus). Description: Test A preemergence. Particulars: Amaranthus retroflexus, pre-emergence, 240 h; for pest or weed control at 125 g/ha: 125 g ai/ha, preemergence, 0 to 100 scale where 0 is no effect and 100 is complete control, read-out: Pigweed plant response rating; for pest or weed control at 500 g/ha: 500 g ai/ha, Preemergence, visual injury vs untreated controls after approximately 10 d, read-out: Pigweed plant response rating (0 to 100 scale where 0 is no effect and 100 is complete control).

In assay [5] the test system is giant foxtail (Setaria faberii). The experiment in a line: Test A postemergence. To be noted: Setaria faberi, post-emergence, 240 h, 125 g ai/ha, postemergence, visual injury rating after approximately 10 d; read-out: Foxtail, Giant plant response rating (0 to 100 scale, 0 no effect, 100 complete control). The method, boiled down: (§2)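 Preemergence soil spray on seeded pots or post-emergence spray on 1–2 leaf plants, in loam–sand blend. Greenhouse ~10 d. Visual rating 0–100 against untreated plants.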

For assay [6], the system named is ragweed (common ragweed, Ambrosia elatior). The experiment in a line: Test A postemergence. To be noted: Ambrosia artemisiifolia, post-emergence, 240 h, 125 g ai/ha, postemergence, visual injury rating after approximately 10 d; read-out: Ragweed plant response rating (0 to 100 scale, 0 no effect, 100 complete control). In a few lines:
as §2

The test system of another assay is Kochia (Kochia scoparia). Description: Test A postemergence. To be noted: Bassia scoparia, post-emergence, 240 h, 125 g ai/ha, postemergence, visual injury rating after approximately 10 d; read-out: Kochia plant response rating (0 to 100 scale, 0 no effect, 100 complete control). The method, boiled down:
as §2

Assay [7] concerns barnyardgrass (Echinochloa crus-galli). Description: Test A postemergence. Particulars: Echinochloa crus-galli, post-emergence, 240 h, 125 g ai/ha, postemergence, visual injury rating after approximately 10 d; read-out: Barnyardgrass plant response rating (0 to 100 scale, 0 no effect, 100 complete control). In a few lines:
as §2

A further assay deals with corn (Zea mays). Description: Test A postemergence. Particulars: Zea mays, post-emergence, 240 h, 125 g ai/ha, postemergence, visual injury rating after approximately 10 d; read-out: Corn plant response rating (0 to 100 scale, 0 no effect, 100 complete control). In a few lines:
as §2

Assay [8] concerns wheat (Triticum aestivum). Description: Test A postemergence. To be noted: Triticum aestivum, post-emergence, 240 h, 125 g ai/ha, postemergence, visual injury rating after approximately 10 d; read-out: Wheat plant response rating (0 to 100 scale, 0 no effect, 100 complete control). In a few lines:
as §2

Assay [9] has as its system blackgrass (Alopecurus myosuroides). The experiment in a line: Test A postemergence. To be noted: Alopecurus myosuroides, post-emergence, 240 h, 125 g ai/ha, postemergence, visual injury rating after approximately 10 d; read-out: Blackgrass plant response rating (0 to 100 scale, 0 no effect, 100 complete control). In a few lines:
as §2

The subject of assay [10] is Galium (catchweed bedstraw, Galium aparine). The experiment in a line: Test A postemergence. Particulars: Galium, post-emergence, 240 h, 125 g ai/ha, postemergence, visual injury rating after approximately 10 d; read-out: Galium plant response rating (0 to 100 scale, 0 no effect, 100 complete control). The method, boiled down: as §2
The subject of assay [11] is ryegrass, Italian (Italian ryegrass, Lolium multiflorum). The experiment in a line: Test A postemergence. To be noted: Lolium multiflorum, post-emergence, 240 h, 125 g ai/ha, postemergence, visual injury rating after approximately 10 d; read-out: Ryegrass, Italian plant response rating (0 to 100 scale, 0 no effect, 100 complete control). In a few lines:
as §2

The test system of assay [12] is pigweed (Amaranthus retroflexus). Description: Test A postemergence. Particulars: Amaranthus retroflexus, post-emergence, 240 h, 125 g ai/ha, postemergence, visual injury rating after approximately 10 d; read-out: Pigweed plant response rating (0 to 100 scale, 0 no effect, 100 complete control). The method, boiled down:
as §2

For the molecule `Cc1cc(F)ccc1NC(=O)[C@H]1C(=O)NC[C@@H]1c1cccc(C(F)(F)F)c1` [Compound 828], the pest or weed control at 250 g/ha with rice (Oryra sativa) is 0%; in assay [1], 30%; in assay [2], 0%; in assay [3], 0%. For the same molecule, the pest or weed control at 125 g/ha in assay [4] was determined as 0%; in assay [5] it was 90%; in assay [6] it was 0%; with Kochia (Kochia scoparia) it was 0%; in assay [7] it was 70%; in assay [9], 50%. The pest or weed control at 125 g/ha in assay [10] came out at 30%; in assay [11], 20%; in [12], 0%. Further, in [4], the pest or weed control at 500 g/ha came out at 0%. In addition, the plant injury at 125 g/ha with corn (Zea mays) came to 40%; in assay [8], 20%.
As to `CN1C[C@H](c2cc(F)cc(F)c2)[C@@H](C(=O)Nc2ccccc2[S@@+](C)[O-])C1=O` [Compound 872], the pest or weed control at 250 g/ha in the assay on rice (Oryra sativa) is 0%; in assay [1] it was 85%; in assay [2] it was 0%; in assay [3], 40%. Further, the pest or weed control at 125 g/ha in assay [4] came out at 0%; in assay [5], 80%; in [6], 0%; with Kochia (Kochia scoparia), 50%; in assay [7] it was 90%; in [9], 20%. The pest or weed control at 125 g/ha in assay [10] is 50%; in assay [11], 0%; in assay [12], 30%. Also, the pest or weed control at 500 g/ha in assay [4] is 60%. Moreover, the plant injury at 125 g/ha in the assay on corn (Zea mays) is 30%; in [8] it was 20%.
Regarding `Cc1cc(C)cc([C@H]2CN(C)C(=O)[C@@H]2C(=O)Nc2ccccc2F)c1` [Compound 910], the pest or weed control at 250 g/ha amounted to 0% in the assay with rice (Oryra sativa), 85% in assay [1], 70% in assay [2] and 0% in assay [3]. The pest or weed control at 125 g/ha in assay [4] was determined as 0%; in assay [5], 90%; in assay [6] it was 10%; in the assay with Kochia (Kochia scoparia), 20%; in assay [7] it was 90%; in assay [9] it was 50%. For the same molecule, the pest or weed control at 125 g/ha in [10] was determined as 30%; in [11], 50%; in [12], 0%. Also, the pest or weed control at 500 g/ha in [4] worked out at 30%. Besides, the values for the plant injury at 125 g/ha (in the assay on corn (Zea mays); in [8]) were 70% and 0%, respectively.

(Values after patent US12077503B2, “Substituted cyclic amides and their use as herbicides” (FMC CORPORATION, priority 2015, dated 2024).)
